Assay results from US11498896B2 (The Broad Institute, Inc., priority 2014, dated 2022).

Experiments:
human D2R/β-arrestin [1] = target: T1, human D2R/β-arrestin (Homo sapiens (Human), UniProt P14416); experiment: Gi/cAMP agonist assay (Lance Ultra cAMP, forskolin); format: cell-based; conditions: CHO-K1 cells expressing human D2R/β-arrestin; agonist mode, 2.5 μM forskolin
Description: Eu-cAMP tracer solution (10 μl, PerkinElmer, 360 μl of Tracer in 17.64 ml kit buffer) and ULight-anti-cAMP solution (10 μl, 120 μL antibody in 17.88 ml kit buffer) was then added to each well.

human D2R/β-arrestin [2] = target: T1, human D2R/β-arrestin; experiment: cell-based; conditions: β-arrestin Antagonist, CHO-K1 cells expressing human D2R/β-arrestin; antagonist mode, quinpirole 130 nM
Description: Cells were prepared for assays by growing cultures for up to 2 weeks (from about 6-20 passages). A vial of frozen cells was thawed in a water bath held at 37° C. The cells were then transferred into a 50 ml tube with 10 ml growth media. The vial was rinsed with growth media and the contents transferred to the 50 ml tube. The 50 ml tube was centrifuged at 1200 rpm for 5 minutes at room temperature. […] When the cells reached about 90% confluence (approximately 3 days between passages), the cells were passaged and used for either the agonist or antagonist assays as described below.
The cells were prepared for β-arrestin assays as described above. The assays were performed using a PathHunter® β-Arrestin Detecting Kit (DiscoveRX). The cells were grown on 225 mm dishes, then washed once with 1×PBS (Cellgro), followed by digestion with 2.5 ml 1× Detachment reagent (DRX 92-0009) for approximately 2 minutes.

human D2R/β-arrestin [3] = target: T1, human D2R/β-arrestin; experiment: cell-based; conditions: cAMP Antagonist, CHO-K1 cells expressing human D2R/β-arrestin; antagonist mode, 2.5 μM forskolin and 2.7 nM quinpirole
human D2R/β-arrestin [4] = target: T1, human D2R/β-arrestin; experiment: β-arrestin agonist assay (PathHunter); format: cell-based; conditions: CHO-K1 cells expressing human D2R/β-arrestin; agonist mode
Description: The detection reagent (9.6 μL, Buffer:Emerald II:Galactor-Star in a 19:5:1 ratio, i.e., 14.06 mL:3.7 mL:0.74 mL=18.5 mL) was then added to the agonist plates.

T1 sequence (P14416 whole entry): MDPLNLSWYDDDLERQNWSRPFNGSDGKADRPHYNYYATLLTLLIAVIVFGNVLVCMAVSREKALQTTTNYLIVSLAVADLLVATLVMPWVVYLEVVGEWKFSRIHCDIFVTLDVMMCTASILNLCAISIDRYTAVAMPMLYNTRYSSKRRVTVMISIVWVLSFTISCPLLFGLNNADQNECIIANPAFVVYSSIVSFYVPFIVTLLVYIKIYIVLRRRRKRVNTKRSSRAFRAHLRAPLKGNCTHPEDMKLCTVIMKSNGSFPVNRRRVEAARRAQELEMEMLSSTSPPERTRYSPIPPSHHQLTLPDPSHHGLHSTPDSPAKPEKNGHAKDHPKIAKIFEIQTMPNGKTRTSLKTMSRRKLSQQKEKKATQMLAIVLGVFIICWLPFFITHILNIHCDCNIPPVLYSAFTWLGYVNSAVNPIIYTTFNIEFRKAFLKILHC

Structure (SMILES) | EC50 (human D2R/β-arrestin [1]) [µM] | IC50 (human D2R/β-arrestin [2]) [µM] | IC50 (human D2R/β-arrestin [3]) [µM] | EC50 (human D2R/β-arrestin [4]) [µM]
CC1(Oc2ccc(Cl)cc2)CCN(CCCCOc2ccc3ncsc3c2)C1 (stereo not drawn) [Compound 29, 6-(4-(3-(4-chlorophenoxy)-3-methylpyrrolidin-1-yl)butoxy)benzo[d]thiazole] | > 30 | 1 to 10 | 1 to 10 | > 30
CC1(Oc2ccc(Cl)cc2)CCN(CCOc2ccc(C(F)(F)F)nc2)C1 (stereo not drawn) [Compound 30, 5-(2-(3-(4-Chlorophenoxy)-3-methylpyrrolidin-1-yl)ethoxy)-2-(trifluoromethyl)pyridine] | 0.1 to 1 | > 30 | > 30 | 1 to 10
CC1(Oc2ccc(Cl)cc2)CCN(CCOc2ccc3ccccc3c2)C1 (stereo not drawn) [Compound 31, 3-(4-Chlorophenoxy)-3-methyl-1-(2-(naphthalen-2-yloxy)ethyl) pyrrolidine] | > 30 | 1 to 10 | 0.1 to 1 | > 30
CC1(Oc2ccc(Cl)cc2)CCN(CCOc2ccc3ncccc3c2)C1 (stereo not drawn) [Compound 32] | 0.1 to 1 | 1 to 10 | > 30 | > 30
CC1(Oc2ccc(Cl)cc2)CCN(CCOc2ccc3cnccc3c2)C1 (stereo not drawn) [Compound 33, 6-(2-(3-(4-chlorophenoxy)-3-methylpyrrolidin-1-yl)ethoxy)isoquinoline] | > 30 | 1 to 10 | 0.1 to 1 | > 30
CC1(Oc2ccc(Cl)cc2)CCN(CCOc2ccc3ccncc3c2)C1 (stereo not drawn) [Compound 34, 7-(2-(3-(4-chlorophenoxy)-3-methylpyrrolidin-1-yl)ethoxy)isoquinoline] | 0.1 to 1 | > 30 | > 30 | 1 to 10
CC1(Oc2ccc(Cl)cc2)CCN(CCOc2ccc(Cl)c(Cl)c2)C1 (stereo not drawn) [Compound 35, 3-(4-chlorophenoxy)-1-(2-(3,4-dichlorophenoxy)ethyl)-3-methyl pyrrolidine] | < 0.1 | 1 to 10 | > 30 | > 30
CC1(Oc2ccc(Cl)cc2)CCN(CCOc2cccc3ccccc23)C1 (stereo not drawn) [Compound 36, 3-(4-chlorophenoxy)-3-methyl-1-(2-(naphthalen-1-yloxy)ethyl) pyrrolidine] | 0.1 to 1 | 1 to 10 | 0.1 to 1 | > 30
CC1(Oc2ccc(Cl)cc2)CCN(CCOc2cccc(-c3ccccc3)c2)C1 (stereo not drawn) [Compound 37, 1-(2-([1,1′-biphenyl]-3-yloxy)ethyl)-3-(4-chlorophenoxy)-3-methylpyrrolidine] | > 30 | 1 to 10 | 0.1 to 1 | > 30
CC1(Oc2ccc(Cl)cc2)CCN(CCOc2ccccc2)CC1 [Compound 38, 4-(4-chlorophenoxy)-4-methyl-1-(2-phenoxyethyl)piperidine] | < 0.1 | > 30 | > 30 | 0.1 to 1
CC1(Oc2ccccc2)CCN(CCOc2ccccc2)C1 (stereo not drawn) [Compound 39, 3-methyl-3-phenoxy-1-(2-phenoxyethyl)pyrrolidine] | < 0.1 | 0.1 to 1 | > 30 | > 30
FC(F)(F)c1ccccc1OCCN1CCC2(CC1)CCN2c1ccccc1 [Compound 113, 1-phenyl-7-(2-(2-(trifluoromethyl)phenoxy)ethyl)-1,7-diazaspiro[3.5]nonane] | > 30 | 0.1 to 1 | 0.1 to 1 | > 30
OC1(Cc2ccccc2)CCN(CCOc2ccccc2C(F)(F)F)CC1 [Compound 114, 4-benzyl-1-(2-(2-(trifluoromethyl)phenoxy)ethyl)piperidin-4-ol] | > 30 | < 0.1 | < 0.1 | > 30
FC1(Cc2ccccc2)CCN(CCOc2ccccc2C(F)(F)F)CC1 [Compound 115, 4-benzyl-4-fluoro-1-(2-(2-(trifluoromethyl)phenoxy)ethyl)piperidine] | > 30 | 1 to 10 | 1 to 10 | > 30
CC1(Oc2ccccc2)CCN(CCC(=O)c2ccccc2C(F)(F)F)CC1 [Compound 116, 3-(4-Methyl-4-phenoxypiperidin-1-yl)-1-(2-(trifluoromethyl)phenyl) propan-1-one] | > 30 | 10 to 30 | 1 to 10 | > 30
CC1(Oc2ccc(Cl)cc2)CCN(CCC(C)(O)c2ccccc2C(F)(F)F)CC1 (stereo not drawn) [Compound 117, 4-(4-(4-chlorophenoxy)-4-methylpiperidin-1-yl)-2-(2-(trifluoromethyl)phenyl)butan-2-ol] | > 30 | 10 to 30 | 1 to 10 | > 30
CC1(Oc2ccccc2)CCN(CCCc2ccccc2C(F)(F)F)CC1 [Compound 118, 4-Methyl-4-phenoxy-1-(3-(2-(trifluoromethyl)phenyl)propyl)piperidine] | < 0.1 | 0.1 to 1 | 0.1 to 1 | > 30

Structure (SMILES) | EC50 (human D2R/β-arrestin [1]) [µM] | IC50 (human D2R/β-arrestin [2]) [µM] | IC50 (human D2R/β-arrestin [3]) [µM] | EC50 (human D2R/β-arrestin [4]) [µM]
CC1(C)OC(c2ccccc2)C2(CCN(CCOc3ccccc3C(F)(F)F)CC2)O1 (stereo not drawn) [Compound 119] | > 30 | 1 to 10 | 1 to 10 | > 30
CC1(Oc2ccc(Cl)cc2)CCN(CCCCOc2ccccc2)CC1 [Compound 120, 4-(4-chlorophenoxy)-4-methyl-1-(4-phenoxybutyl)piperidine] | 1 to 10 | 10 to 30 | > 30 | > 30
CC1(Oc2ccccc2)CCN(CCCCOc2ccccc2)CC1 [Compound 121, 4-Methyl-4-phenoxy-1-(4-phenoxybutyl)piperidine] | < 0.1 | 1 to 10 | > 30 | 0.1 to 1
CC1(O)CCN(CCOc2ccccc2C(F)(F)F)CC1 [Compound 124, 4-Methyl-1-(2-(2-(trifluoromethyl)phenoxy)ethyl)piperidin-4-ol] | > 30 | 0.1 to 1 | < 0.1 | > 30
CC1(OCc2ccccc2)CCN(CCOc2ccccc2C(F)(F)F)CC1 [Compound 126, 4-(Benzyloxy)-4-methyl-1-(2-(2-(trifluoromethyl)phenoxy)ethyl) piperidine] | > 30 | < 0.1 | < 0.1 | > 30
CC1(Oc2ccc(Cl)cc2)CCN(CCOc2ccc3ncoc3c2)CC1 [Compound 127, 6-(2-(4-(4-chlorophenoxy)-4-methylpiperidin-1-yl)ethoxy)benzo[d] oxazole] | < 0.1 | 1 to 10 | > 30 | 0.1 to 1
CC1(Oc2ccc(Cl)cc2)CCN(CCOc2cnccc2C(F)(F)F)CC1 [Compound 128, 3-(2-(4-(4-chlorophenoxy)-4-methylpiperidin-1-yl)ethoxy)-4-(trifluoromethyl)pyridine] | 1 to 10 | 1 to 10 | 0.1 to 1 | > 30
CC1(Oc2ccc(Cl)cc2)CCN(CC(=O)Nc2ccccc2C(F)(F)F)CC1 [Compound 129, 2-(4-(4-chlorophenoxy)-4-methylpiperidin-1-yl)-N-(2-(trifluoromethyl)phenyl)acetamide] | > 30 | > 30 | > 30 | > 30
CC1(O)CCN(CCOc2ccccc2)CC1 [Compound 130, 4-Methyl-1-(2-phenoxyethyl)piperidin-4-ol] | 0.1 to 1 | 10 to 30 | > 30 | 1 to 10
CC1(O)CCN(CCOc2ccccc2F)CC1 [Compound 131, 1-(2-(2-fluorophenoxy)ethyl)-4-methylpiperidin-4-ol] | < 0.1 | 1 to 10 | > 30 | 0.1 to 1
CC1(O)CCN(CCOc2ccc(C(F)(F)F)cc2)CC1 [Compound 132, 4-methyl-1-(2-(4-(trifluoromethyl)phenoxy)ethyl)piperidin-4-ol] | > 30 | 10 to 30 | 1 to 10 | > 30
C[C@]1(O)C[C@H]2CC[C@@H](C1)N2CCOc1ccccc1C(F)(F)F [Compound 133, 3-methyl-8-(2-(2-(trifluoromethyl)phenoxy)ethyl)-8-azabicyclo[3.2.1] octan-3-ol] | > 30 | 0.1 to 1 | 0.1 to 1 | > 30
CC1(O)CCCN(CCOc2ccccc2C(F)(F)F)C1 (stereo not drawn) [Compound 134, 3-Methyl-1-(2-(2-(trifluoromethyl)phenoxy)ethyl)piperidin-3-ol] | > 30 | 10 to 30 | 1 to 10 | > 30
FC(F)(F)c1ccccc1OCCN1CCC2(CC1)CCN2c1ccc(Cl)cc1 [Compound 136, 1-(4-Chlorophenyl)-7-(2-(2-(trifluoromethyl)phenoxy)ethyl)-1,7-diazaspiro[3.5]nonane] | > 30 | 0.1 to 1 | < 0.1 | > 30
CC1(O)CCN(CCCOc2ccccc2C(F)(F)F)CC1 [Compound 138, 4-methyl-1-(3-(2-(trifluoromethyl)phenoxy)propyl)piperidin-4-ol] | > 30 | 0.1 to 1 | 0.1 to 1 | > 30
CC1(O)CCN(CCOc2ccccc2C(F)(F)F)C1 (stereo not drawn) [Compound 139, 3-Methyl-1-(2-(2-(trifluoromethyl)phenoxy)ethyl)pyrrolidin-3-ol] | > 30 | 1 to 10 | 1 to 10 | > 30
